Results as given in publication PMC11152041, “Tricarbonyl rhenium(I) complexes with 8-hydroxyquinolines: structural, chemical, antibacterial, and anticancer characteristics” (RSC Advances, 2024).
Read-outs that look alike come from different tables or passages of the source.

How the values were obtained:
[1] = system: P. aeruginosa ATCC27853; assay: Broth microdilution MIC/MBC (ISO 20776-1); assay type: cell-based, Pseudomonas aeruginosa; settings: for MBC: P. aeruginosa ATCC27853, >99.99% reduction of growth; for MIC: P. aeruginosa ATCC27853, MH II broth, 35 °C, 24 h
Procedure: (§1) Bacterial strains and cell lines were obtained from the American Type Culture Collection (ATCC).[59] […] Antimicrobial activity was tested in Müeller Hinton (MH) II broth (Becton Dickinson). For anticancer activity assay, the following reagents from Merk were used: 3-(4,5-dimethylthiazol-2-yl)-2,5-diphenyltetrazolium bromide (MTT), sodium dodecyl sulfate (SDS) and HCl. The solubilized formazan product was spectrophotometrically quantified in a Power Wave XS (Bio Tek, Winooski, VT, USA) microplate reader. The HL-60 and PC-3 cells were grown in RPMI-1640 medium with stable glutamine (Biowest) supplemented with 10% (v/v) of heat-inactivated fetal bovine serum (FBS, Biowest) and 1% (v/v) of antibiotic–antimycotic solution (Biowest). The SKOV-3 cells were grown in McCoy's 5A medium with L-glutamine (Biowest) supplemented with 10% (v/v) heat-inactivated FBS, and 1% (v/v) antibiotic–antimycotic solution. The MCF-7 cells were grown in Eagle's MEM (Minimal Essential Medium) medium with stable glutamine (Biowest), supplemented with 10% (v/v) heat-inactivated FBS 1% (v/v) MEM non-essential amino acids (Biowest), 1% (v/v) antibiotic–antimycotic solution, and 1 mM sodium pyruvate (Merck). The MCF-10A cells were grown in Ham's F-12K (Kaighn's) Medium with stable glutamine (Gibco) supplemented with 5% (v/v) heat-inactivated FBS, 1% (v/v) MEM non-essential amino acids, 1% (v/v) antibiotic–antimycotic solution, 5 μg mL^−1 insulin, 0.04 μg mL^−1 hydrocortisone (Merck), and 15 ng mL^−1 human Epidermal Growth Factor (hEGF, PeproTech).
(§2) The in vitro antibacterial activity was determined according to ISO 20776-1.[88] Among the tested microorganisms were Gram-negative rods, E. coli ATCC25922 and P. aeruginosa ATCC27853, and Gram-positive cocci, S. aureus ATCC29213 and E. faecalis ATCC29212. The selected bacterial species represented the most common etiologic agents of human infections and are used for quality control of antimicrobial susceptibility testing.[89] The test procedure included the determination of MICs and MBCs of complexes and their free ligands. MIC and MBC determinations of ciprofloxacin, as the reference antibiotic, were also performed. All compounds were dissolved in DMSO to reach the maximum 512 mg L^−1 concentration. […] The assay consisted of preparing 2-fold dilutions of the substances in a liquid growth medium MH II and inoculating them with a standardized suspension of microorganisms at a McFarland density of 0.5 (≈10^8 CFU mL^−1). The culture plates were incubated at 35 °C for 24 h. The lowest concentration of the compound inhibiting visible bacterial growth was specified as MIC, and the concentration that reduced bacterial growth by >99.99% after counting live bacteria on the plates compared to the positive control was defined as MBC.

[2] = system: SKOV-3 cells; assay: MTT cytotoxicity assay; assay type: cell-based, human; settings: MTT, read-out: IC50 ± SD
Procedure: (§3) The cytotoxicities for studied compounds were evaluated against leukemia cells (HL-60), as well as ovarian (SKOV-3), prostate (PC-3), and breast (MCF-7) cancer cell lines. The potential selectivity of these compounds towards cancer cells was assessed by determination of their cytotoxicities towards breast non-cancerous cells (MCF-10A). For comparison, cisplatin was added to the cytotoxicity assays.
as §1
(§4) The cells were cultured in 96-well plates and incubated with the tested compound for 24 h and 48 h. All experiments were performed in exponentially growing cultures. The 0.03 M solutions of the compounds in DMSO were appropriately diluted using culture media. The maximal final concentration of DMSO in each well was 0.1%. The cytotoxicity of the compounds was measured by determining cell viability with a colorimetric test based on 3-(4,5-dimethylthiazol-2-yl)-2,5-diphenyltetrazolium bromide (MTT). MTT stock solution was added to each well to a final concentration of 0.5 mg mL^−1 and incubated for 4 h at 37 °C; following formazan crystals were dissolved by the addition of sodium dodecyl sulfate (SDS) solution (10% SDS in 0.001 M HCl). MTT and SDS were added directly to the cell culture. The compound's IC50 values (concentration required to reduce the viability of cells by 50% compared with the control cells) were calculated from the data obtained with the MTT assay.

[3] = system: PC-3 cells; assay: MTT cytotoxicity assay; assay type: cell-based, human; settings: for IC50: MTT, read-out: IC50 ± SD
Procedure: as §3, §1, §4

[4] = system: HL-60 cells; assay: MTT cytotoxicity assay; assay type: cell-based, human; settings: MTT, read-out: IC50 ± SD
Procedure: as §3, §1, §4

[5] = system: MCF-7 cells; assay: MTT cytotoxicity assay; assay type: cell-based, human; settings: MTT, read-out: IC50 ± SD
Procedure: as §3, §1, §4

[6] = system: MCF-10A cells; assay: MTT cytotoxicity assay; settings: for solubility in the cytotoxicity assay: MCF-10A cell line culture medium; for IC50: read-out: IC50 ± SD, MCF-10A (non-cancerous), MTT, * precipitation of the complex
Procedure: as §3, §1, §4

[7] = system: S. aureus ATCC29213; assay: Broth microdilution MIC/MBC (ISO 20776-1); assay type: cell-based, Staphylococcus aureus; settings: for MBC: S. aureus ATCC29213, >99.99% reduction of growth; for MIC: S. aureus ATCC29213, MH II broth, 35 °C, 24 h
Procedure: as §1, §2

[8] = system: E. coli ATCC25922; assay: Broth microdilution MIC/MBC (ISO 20776-1); assay type: cell-based, Escherichia coli; settings: for MBC: E. coli ATCC25922, >99.99% reduction of growth; for MIC: E. coli ATCC25922, MH II broth, 35 °C, 24 h
Procedure: as §1, §2

[9] = system: E. faecalis ATCC29212; assay: Broth microdilution MIC/MBC (ISO 20776-1); assay type: cell-based, Enterococcus faecalis; settings: for MBC: E. faecalis ATCC29212, >99.99% reduction of growth; for MIC: E. faecalis ATCC29212, MH II broth, 35 °C, 24 h
Procedure: as §1, §2

Molecule	MBC [1]	MIC [1]	IC50 ([2]; SKOV-3, 24 h)	IC50 ([2]; SKOV-3, 48 h)	IC50 ([3]; PC-3, 24 h)	IC50 ([3]; PC-3, 48 h)	IC50 ([4]; HL-60, 24 h)	IC50 ([4]; HL-60, 48 h)	IC50 ([5]; MCF-7, 24 h)	IC50 ([5]; MCF-7, 48 h)	IC50 ([6]; 24 h)	IC50 ([6]; 48 h)	MBC [7]	MIC [7]	MBC [8]	MIC [8]	MBC [9]	MIC [9]	also measured
Cc1ccc2cccc([O][Re])c2n1.[C-]#[O+].[C-]#[O+].[C-]#[O+].c1c[nH]cn1 [complex 5, [Re(CO)3(MeQ)Him]]	64 mg/L	16 mg/L	31 ± 5 µM	26 ± 11 µM	11 ± 3 µM	28 ± 6 µM	11 ± 2 µM	4 ± 1 µM	47 ± 7 µM	43 ± 6 µM	50 ± 2 µM	> 50 µM	512 mg/L	16 mg/L	16/16 mg L^−1	16/16 mg L^−1	> 512 mg/L	32 mg/L	fold better activity than the free MeHQ ligand ([1]; P. aeruginosa, MIC/MBC compared with MeHQ): 4 fold; times lower effect after 48 h than after 24 h ([3]; PC-3, IC50 48 h versus 24 h): about 2.5 times; solubility in the cytotoxicity assay [6]: precipitated at higher concentrations; fold decline of MBC compared to the free ligand ([8]; E. coli, compared with MeHQ): 5 fold; fold increase of MBC compared to the free ligand ([9]; E. faecalis, compared with MeHQ): 4 fold
Cc1ccc2cccc([O][Re])c2n1.Cc1ncc[nH]1.[C-]#[O+].[C-]#[O+].[C-]#[O+] [complex 6, [Re(CO)3(MeQ)MeHim]]	>512/>512 mg L^−1	>512/>512 mg L^−1	32 ± 7 µM	30 ± 9 µM	54 ± 7 µM	22 ± 5 µM	14 ± 1 µM	9 ± 1 µM	44 ± 1 µM	35 ± 6 µM	66 ± 1 µM	35 ± 1 µM	512 mg/L	64 mg/L	>512/>512 mg L^−1	>512/>512 mg L^−1	256 mg/L	64 mg/L	–
Cc1cc(C)[nH]n1.Cc1ccc2cccc([O][Re])c2n1.[C-]#[O+].[C-]#[O+].[C-]#[O+] [complex 7, [Re(CO)3(MeQ)Hdmpz]]	>512/>512 mg L^−1	>512/>512 mg L^−1	29 ± 5 µM	26 ± 5 µM	16 ± 2 µM	18 ± 4 µM	13 ± 1 µM	12 ± 1 µM	27 ± 8 µM	19 ± 4 µM	> 25 µM	> 25 µM	>512/>512 mg L^−1	>512/>512 mg L^−1	>512/>512 mg L^−1	>512/>512 mg L^−1	> 512 mg/L	128 mg/L	solubility in the cytotoxicity assay [6]: precipitated at higher concentrations
Clc1ccc([O][Re])c2ncccc12.[C-]#[O+].[C-]#[O+].[C-]#[O+].c1c[nH]cn1 [complex 9, [Re(CO)3(ClQ)Him]]	> 512 mg/L	256 mg/L	32 ± 5 µM	28 ± 4 µM	29 ± 4 µM	22 ± 3 µM	11 ± 1 µM	8 ± 2 µM	58 ± 7 µM	47 ± 6 µM	42 ± 2 µM	24 ± 1 µM	>512/>512 mg L^−1	>512/>512 mg L^−1	256/256 mg L^−1	256/256 mg L^−1	> 512 mg/L	64 mg/L	–
Cc1cc(C)[nH]n1.Clc1ccc([O][Re])c2ncccc12.[C-]#[O+].[C-]#[O+].[C-]#[O+] [complex 11, [Re(CO)3(ClQ)Hdmpz]]	>512/>512 mg L^−1	>512/>512 mg L^−1	40 ± 6 µM	32 ± 7 µM	18 ± 1 µM	24 ± 4 µM	5 ± 1 µM	2.8 ± 0.4 µM	18 ± 5 µM	25 ± 3 µM	24 ± 3 µM	10 ± 1 µM	256 mg/L	64 mg/L	512/>512 mg L^−1	512/>512 mg L^−1	64/64 mg L^−1	64/64 mg L^−1	–
Clc1ccc([O][Re])c2ncccc12.[C-]#[O+].[C-]#[O+].[C-]#[O+].c1ccc(-c2ccn[nH]2)cc1 [complex 12, [Re(CO)3(ClQ)HPhpz]]	>512/>512 mg L^−1	>512/>512 mg L^−1	> 100 µM	78 ± 12 µM	41 ± 8 µM	23 ± 4 µM	2 ± 1 µM	1.5 ± 0.4 µM	29 ± 3 µM	25 ± 4 µM	34 ± 3 µM	14 ± 1 µM	> 512 mg/L	128 mg/L	>512/>512 mg L^−1	>512/>512 mg L^−1	> 512 mg/L	16 mg/L	–
[Re(CO)3(ClQ)MeHim]·CH3CN [complex 10]	512/>512 mg L^−1	512/>512 mg L^−1	34 ± 5 µM	32 ± 7 µM	23 ± 2 µM	23 ± 2 µM	5 ± 1 µM	7 ± 1 µM	54 ± 4 µM	53 ± 4 µM	15 ± 1 µM	12 ± 1 µM	> 512 mg/L	64 mg/L	512/>512 mg L^−1	512/>512 mg L^−1	> 512 mg/L	4 mg/L	–
